Measurements reported in ChEMBL document CHEMBL1201862, “PubChem BioAssay data set” (2004).
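96-well plates; 48 h exposure; 5 concentrations. Endpoints by linear interpolation between flanking doses. Not reached: highest tested concentration assigned. GI50 marks 50% less growth.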 Active and inactive are the calls of the source. Rule as the data show it: active = GI50 up to about 1.1 µM and inactive = higher.

Experiments:
Assay in all cases: inhibition of tumour cell growth, NCI panel, 48 h
UACC-62 = tested on: UACC-62
SK-MEL-28 = tested on: SK-MEL-28
CCRF-CEM = tested on: CCRF-CEM
SF-268 = tested on: SF-268
IGROV-1 = tested on: IGROV-1
M19-MEL = tested on: M19-MEL
OVCAR-4 = tested on: OVCAR-4
A549 = tested on: A549
OVCAR-3 = tested on: OVCAR-3
OVCAR-5 = tested on: OVCAR-5
A498 = tested on: A498
UO-31 = tested on: UO-31
U-251 = tested on: U-251
OVCAR-8 = tested on: OVCAR-8
LOX IMVI = tested on: LOX IMVI
SF-295 = tested on: SF-295
EKVX = tested on: EKVX
SK-MEL-2 = tested on: SK-MEL-2
HCC 2998 = tested on: HCC 2998
HCT-15 = tested on: HCT-15
NCI-H23 = tested on: NCI-H23
DMS-114 = tested on: DMS-114
RXF 393 = tested on: RXF 393
DLD-1 = tested on: DLD-1
Malme-3M = tested on: Malme-3M
MOLT-4 = tested on: MOLT-4
MCF7 = tested on: MCF7
COLO 205 = tested on: COLO 205
SNB-19 = tested on: SNB-19
XF498 = tested on: XF498
SW-620 = tested on: SW-620
RPMI-8226 = tested on: RPMI-8226
DMS-273 = tested on: DMS-273
SN12C = tested on: SN12C
HT-29 = tested on: HT-29
SF-539 = tested on: SF-539
HCT-116 = tested on: HCT-116
KM-20L2 = tested on: KM-20L2
SK-OV-3 = tested on: SK-OV-3
K562 = tested on: K562
SNB-75 = tested on: SNB-75
HOP-92 = tested on: HOP-92
NCI-H460 = tested on: NCI-H460
NCI/ADR-RES = tested on: NCI/ADR-RES
SK-MEL-5 = tested on: SK-MEL-5
NCI-H226 = tested on: NCI-H226
KM12 = tested on: KM12
SNB-78 = tested on: SNB-78
HOP-62 = tested on: HOP-62
UACC-257 = tested on: UACC-257
HL-60 = tested on: HL-60
CAKI-1 = tested on: CAKI-1
HOP-18 = tested on: HOP-18
SR = tested on: SR
ACHN = tested on: ACHN
M14 = tested on: M14
LXFL 529 = tested on: LXFL 529
TK-10 = tested on: TK-10
NCI-H522 = tested on: NCI-H522
786-0 = tested on: 786-0

Measured: GI50

Cc1cccc2nc3c(C(=O)NCCN(C)C)cccc3cc12
2330 nM: HCT-15
inactive: UACC-62 1.68 µM | SK-MEL-28 1.85 µM | CCRF-CEM 1.25 µM | SF-268 1.68 µM | IGROV-1 2.31 µM | M19-MEL 1.52 µM | OVCAR-4 1.83 µM | OVCAR-3 2.05 µM | OVCAR-5 2.27 µM | A498 1.37 µM | UO-31 1.27 µM | U-251 2.52 µM | LOX IMVI 1.26 µM | SF-295 1.51 µM | EKVX 1.99 µM | SK-MEL-2 1.88 µM | HCC 2998 2.05 µM | NCI-H23 2.07 µM | DMS-114 1.31 µM | RXF 393 1.45 µM | DLD-1 1.42 µM | Malme-3M 1.38 µM | MCF7 2.2 µM | XF498 1.58 µM | SN12C 1.19 µM | SF-539 2.01 µM | KM-20L2 1.41 µM | SK-OV-3 2.58 µM | K562 1.8 µM | SNB-75 2.25 µM | NCI/ADR-RES 1.95 µM | SK-MEL-5 1.64 µM | KM12 2.29 µM | SNB-78 2.62 µM | HOP-62 1.72 µM | HL-60 1.14 µM | HOP-18 2.04 µM
active: A549 1.09 µM | OVCAR-8 1.07 µM | MOLT-4 0.337 µM | COLO 205 0.681 µM | SNB-19 0.94 µM | SW-620 1 µM | RPMI-8226 0.789 µM | DMS-273 0.929 µM | HT-29 0.791 µM | HCT-116 0.668 µM | HOP-92 776 nM | NCI-H460 0.705 µM | NCI-H226 1.07 µM | UACC-257 0.893 µM | CAKI-1 0.07 µM

Cn1c(=O)c2nc(N3CCOCC3)cnc2n(C)c1=O
> 100000 nM: HCT-15
inactive: UACC-62 > 100 µM | SK-MEL-28 > 100 µM | CCRF-CEM > 100 µM | SF-268 > 100 µM | IGROV-1 > 100 µM | M19-MEL > 100 µM | OVCAR-4 > 100 µM | SR > 100 µM | A549 > 100 µM | OVCAR-3 > 100 µM | OVCAR-5 > 100 µM | A498 > 100 µM | UO-31 > 100 µM | U-251 > 100 µM | OVCAR-8 > 100 µM | SF-295 > 100 µM | EKVX > 100 µM | SK-MEL-2 > 100 µM | HCC 2998 > 100 µM | ACHN > 100 µM | NCI-H23 > 100 µM | DMS-114 > 100 µM | DLD-1 > 100 µM | Malme-3M > 100 µM | M14 > 100 µM | MOLT-4 > 100 µM | COLO 205 > 100 µM | SNB-19 > 100 µM | XF498 > 100 µM | SW-620 > 100 µM | RPMI-8226 > 100 µM | DMS-273 > 100 µM | SN12C > 100 µM | HT-29 > 100 µM | SF-539 > 100 µM | HCT-116 > 100 µM | KM-20L2 > 100 µM | SK-OV-3 > 100 µM | K562 > 100 µM | SNB-75 > 100 µM | LXFL 529 > 100 µM | HOP-92 > 100000 nM | TK-10 > 100 µM | NCI-H460 > 100 µM | SK-MEL-5 > 100 µM | NCI-H522 > 100 µM | KM12 > 100 µM | SNB-78 > 100 µM | HOP-62 > 100 µM | UACC-257 > 100 µM | HL-60 > 100 µM | CAKI-1 > 100 µM

N#CC1=C(N)N2C(=O)/C(=C/c3ccccc3)SC2C(c2nc3ccccc3[nH]2)=C1c1ccccc1 (stereo unspecified)
inactive: UACC-62 2.17 µM | SK-MEL-28 3.12 µM | CCRF-CEM 1.96 µM | SF-268 2.42 µM | IGROV-1 2.19 µM | M19-MEL 2.88 µM | OVCAR-4 2.42 µM | SR 1.91 µM | 786-0 2.72 µM | A549 3.87 µM | OVCAR-3 1.89 µM | OVCAR-5 2.54 µM | A498 2.12 µM | UO-31 1.93 µM | U-251 2.44 µM | OVCAR-8 2.46 µM | LOX IMVI 1.73 µM | SF-295 2.53 µM | EKVX 2.23 µM | SK-MEL-2 2.04 µM | HCC 2998 1.57 µM | ACHN 3.67 µM | NCI-H23 1.85 µM | DMS-114 2.16 µM | DLD-1 3.26 µM | Malme-3M 1.75 µM | M14 2.44 µM | MOLT-4 2.4 µM | COLO 205 5.98 µM | SNB-19 3.4 µM | XF498 2.11 µM | SW-620 3.68 µM | DMS-273 2.07 µM | SN12C 2.91 µM | HT-29 4.03 µM | SF-539 1.91 µM | HCT-116 3.45 µM | KM-20L2 2.75 µM | SK-OV-3 1.68 µM | K562 5.32 µM | SNB-75 1.74 µM | LXFL 529 2.49 µM | TK-10 2.42 µM | NCI-H460 3.09 µM | SK-MEL-5 1.83 µM | NCI-H226 1.93 µM | NCI-H522 1.86 µM | KM12 3.55 µM | SNB-78 2.52 µM | HOP-62 2.44 µM | UACC-257 4.55 µM | HL-60 2.31 µM | CAKI-1 2.07 µM
active: HOP-92 687 nM
2950 nM: HCT-15
